As a reminder, the Ki is the dissociation constant of the complex between target and ligand, obtained from inhibition or displacement. Low values mean higher affinity, high ones lower affinity. By EC50 is commonly meant the concentration needed to bring the measured effect to its halfway point. The Emax is the size of the effect at its maximum, as opposed to the concentration needed.

The target of assay [1] is T1, human KOR (Homo sapiens, UniProt P41145).
T1 construct: expressed in transfected cells; cell lines provided by Professor Lawrence Toll
Briefly: [3H]-diprenorphine competitive displacement binding, KOR. Conditions: membranes from CHO cells expressing human KOR; mean (SEM), n>=3 in duplicate. The method, then:
(§1) Each novel compound was evaluated for binding to and stimulation of KOR, MOR, and DOR. Binding affinity (Ki) was determined by competitive displacement of [^3H]-diprenorphine, a non-selective opioid receptor antagonist with similar affinity for each of the three receptors. Potency (EC50) and efficacy, expressed as percent stimulation compared to a standard agonist at each receptor, were determined by a [^35S]-GTPγS binding assay.
(§2) Membranes prepared from transfected Chinese Hamster Ovary cells stably expressing human KOR, human MOR, or human DOR were used for all assays. Cells were grown to confluence at 37 °C in 5% CO2 in 1:1 DMEM:F12 media with 10% v/v fetal bovine serum and 5% v/v penicillin/streptomycin. Membranes were prepared by washing confluent cells three times with ice cold phosphate-buffered saline (0.9% NaCl, 0.61 mM Na2HPO4, 0.38 mM KH2PO4, pH 7.4). Cells were detached from the plates by incubation in warm harvesting buffer (20 mM HEPES, 150 mM NaCl, 0.68 mM EDTA, pH 7.4) and pelleted by centrifugation at 200× g for 3 min. The cell pellet was suspended in ice-cold 50 mM Tris-HCl buffer, pH 7.4 and homogenized with a Tissue Tearor (Biospec Products, Inc, distributed by Cole-Parmer, Vernon Hills, IL, USA) for 20 s at setting 4. The homogenate was centrifuged at 20,000× g for 20 min at 4 °C, and the pellet was rehomogenized in 50 mM Tris-HCl pH 7.4 with a Tissue Tearor for 10 s at setting 2, followed by recentrifugation. The final pellet was resuspended in 50 mM Tris-HCl pH 7.4 and frozen in aliquots at −80 °C. Protein concentration was determined via Pierce BCA protein assay kit using bovine serum albumin as the standard.
(§3) Binding affinities for all test compounds at KOR, MOR, and DOR were determined by competitive displacement of [^3H]-diprenorphine as previously reported. In a 96-well plate format, cell membranes (5–10 µg of protein) and [^3H]-diprenorphine (0.2 nM) were incubated in Tris-HCl buffer (50 mM, pH 7.4) with various concentrations of test compound at 25 °C for 1 h, allowing the mixture to reach equilibrium. Nonspecific binding was determined using the opioid antagonist naloxone (10 µM), and total binding was determined using vehicle in the absence of competitive ligand. After incubation, membranes were filtered through Whatman GF/C 1.2 micron glass fiber filters and washed with 50 mM Tris-HCl buffer. The radioactivity remaining on the filters was then quantified by liquid scintillation counting after saturation with EcoLume liquid scintillation cocktail in a Microbeta 2450 (Perkin-Elmer, Waltham, MA, USA). Binding affinity (Ki) values were calculated using the Cheng–Prusoff equation via nonlinear regression analysis using GraphPad Prism software from at least three separate binding assays performed in duplicate.

For assay [2], the target named is T2, human DOR (Homo sapiens, UniProt P41143).
T2 construct: expressed in transfected cells; cell lines provided by Professor Lawrence Toll
Briefly: [3H]-diprenorphine competitive displacement binding, DOR. The following applies: membranes from CHO cells expressing human DOR; mean (SEM), n>=3 in duplicate. The method, then: as §1, §2, §3

Assay [3] addresses T3, human MOR (Homo sapiens, UniProt P35372).
T3 construct: expressed in transfected cells; cell lines provided by Professor Lawrence Toll
Briefly: [35S]-GTPγS binding stimulation, MOR. Format: biochemical. Conditions: mean (SEM), * n = 2; for EC50: CHO-human MOR membranes, dns = does not stimulate, average maximal stimulation <10% at up to 10 µM; for Emax: versus 10 µM standard agonist DAMGO, dns = average maximal stimulation <10% at up to 10 µM. As to the method: as §1, §2
(§4) Agonist stimulation of KOR, MOR, and DOR by all test compounds was determined by [^35S]-guanosine 5′-O-[γ-thio]triphosphate ([^35S]-GTPγS) binding assays as previously reported. In a 96-well plate format, membranes from cells expressing opioid receptors as described above (10 µg of protein), [^35S]-GTPγS (0.1 nM), and guanosine diphosphate (30 µM) were incubated in GTPγS buffer (50 mM Tris-HCl, 100 mM NaCl, 5 mM MgCl2, 1 mM EDTA, pH 7.4) with various concentrations of test compound at 25 °C for 1 h. Basal stimulation was determined by incubation in the absence of any ligand. After incubation, membranes were filtered through Whatman GF/C 1.2 micron glass fiber filters and washed with GTPγS buffer with no EDTA. The radioactivity remaining on the filters was then quantified by liquid scintillation counting after saturation with EcoLume liquid scintillation cocktail in a Perkin-Elmer Microbeta 2450. Data are reported as percent stimulation compared to the effects of 10 µM standard agonists—U69,593 (KOR), DAMGO (MOR), or DPDPE (DOR). Percent stimulation and EC50 values were determined via nonlinear regression analysis using GraphPad Prism software from at least three separate assays performed in duplicate. Efficacy is expressed as percent stimulation relative to standard agonists.
In general terms: GTPγS is a poorly hydrolysed GTP analogue; its binding reports G protein activation.

Assay [4] concerns the target T2, human DOR. Briefly: [35S]-GTPγS binding stimulation, DOR. Format: biochemical. The following applies: mean (SEM), * n = 2; for % Stimulation DOR: versus 10 µM standard agonist DPDPE, dns = average maximal stimulation <10% at up to 10 µM. The method, then: as §1, §2, §4
Assay [5] has as its target T1, human KOR. Briefly: [35S]-GTPγS binding stimulation, KOR. Conditions: mean (SEM); for EC50 / EC50 KOR: CHO-human KOR membranes, * n = 2, dns = does not stimulate, average maximal stimulation <10% at up to 10 µM; for Emax / % Stimulation KOR: versus 10 µM standard agonist U69,593, dns = average maximal stimulation <10% at up to 10 µM. Format: biochemical. The method, then:
as §1, §2, §4

For assay [6], the target named is T3, human MOR. Briefly: [3H]-diprenorphine competitive displacement binding, MOR. The following applies: membranes from CHO cells expressing human MOR; mean (SEM), n>=3 in duplicate. As to the method: as §1, §2, §3
[7] abbreviates: CHO-human DOR membranes, dns = does not stimulate, average maximal stimulation <10% at up to 10 µM.

As to `Cc1cc(O)cc(C)c1C[C@H](N)C(=O)N1CCc2ccc(Cc3ccncc3)cc2C1` [Compound 8k, (S)-2-amino-3-(4-hydroxy-2,6-dimethylphenyl)-1-(7-(pyridin-4-ylmethyl)-3,4-dihydroisoquinolin-2(1H)-yl)propan-1-one], the Ki came to 44 nM on human KOR [1], 2.6 nM at human DOR [2] and 42 nM at human MOR [6]. Besides, the figures for the EC50 at human MOR [3] and at human KOR [5] were 179 nM and 1180 nM, respectively. In addition, the figures for the Emax at human MOR [3] and at human KOR [5] were 28% and 44%, respectively. On human DOR [4] (setting [7]), the “EC50 DOR” value is listed as “dns”. The “% Stimulation DOR” value at human DOR [4] is on record as “dns”.
As for `Cc1cc(O)cc(C)c1C[C@H](N)C(=O)N1CCc2ccc(CN3CCCCC3)cc2C1` [Compound 8l, (S)-2-amino-3-(4-hydroxy-2,6-dimethylphenyl)-1-(7-(piperidin-1-ylmethyl)-3,4-dihydroisoquinolin-2(1H)-yl)propan-1-one], the Ki amounted to 29 nM at human KOR [1], 87 nM at human DOR [2] and 4.7 nM at human MOR [6]. Besides, at human MOR [3], the response was half-maximal at 845 nM (EC50). At human MOR [3], the Emax amounted to 34%. Moreover, at human DOR [4] (setting [7]), the “EC50 DOR” value was “dns”. The “% Stimulation DOR” value on human DOR [4] is “dns”. Further, on human KOR [5], the “EC50 KOR” value was “dns”. Further, at human KOR [5], the “% Stimulation KOR” value is recorded as “dns”.
As to `Cc1cc(O)cc(C)c1C[C@H](N)C(=O)N1CCc2ccc(CN3CCCC3)cc2C1` [Compound 8m, (S)-2-amino-3-(4-hydroxy-2,6-dimethylphenyl)-1-(7-(pyrrolidin-1-ylmethyl)-3,4-dihydroisoquinolin-2(1H)-yl)propan-1-one], the results for the Ki on human KOR [1], at human DOR [2] and on human MOR [6] were 69 nM, 175 nM and 17 nM, respectively. Also, on human MOR [3], the Emax was determined as 40%. For the same molecule, the “EC50 DOR” value at human DOR [4] (setting [7]) is recorded as “dns *”. The “% Stimulation DOR” value at human DOR [4] is “dns *”. For the same molecule, the “EC50 KOR” value on human KOR [5] is on record as “dns”. Besides, the “% Stimulation KOR” value at human KOR [5] was “dns”.
With `Cc1cc(O)cc(C)c1C[C@H](N)C(=O)N1CCc2ccc(CN3CCOCC3)cc2C1` [Compound 8n, (S)-2-amino-3-(4-hydroxy-2,6-dimethylphenyl)-1-(7-(morpholinomethyl)-3,4-dihydroisoquinolin-2(1H)-yl)propan-1-one], the Ki at human KOR [1] turned out to be 43 nM. Besides, the Ki on human DOR [2] worked out at 5.6 nM. Also, on human MOR [3], the EC50 is 860 nM and the Emax was determined as 38%. In addition, the “EC50 DOR” value on human DOR [4] (setting [7]) is recorded as “dns”. For the same molecule, the “% Stimulation DOR” value on human DOR [4] was “dns”. Moreover, on human KOR [5], the “EC50 KOR” value is recorded as “dns” and the “% Stimulation KOR” value is given as “dns”. This molecule gave a Ki on human MOR [6] of 39 nM.
With `Cc1cc(O)cc(C)c1C[C@H](N)C(=O)N1CCc2ccc(Cc3cccc4ccccc34)cc2C1` [Compound 8o, (S)-2-amino-3-(4-hydroxy-2,6-dimethylphenyl)-1-(7-(naphthalen-1-ylmethyl)-3,4-dihydroisoquinolin-2(1H)-yl)propan-1-one], the Ki at human KOR [1] came to 4.7 nM; at human DOR [2] it was 3.2 nM; on human MOR [6] it was 5.2 nM. Also, the half-maximal effective concentration (EC50) on human MOR [3] was 132 nM; on human KOR [5], 349 nM. The Emax was found to be 59% at human MOR [3] and 83% on human KOR [5]. In addition, the “EC50 DOR” value on human DOR [4] (setting [7]) is recorded as “dns”. Further, the “% Stimulation DOR” value at human DOR [4] was “dns”.
Molecule `Cc1cc(O)cc(C)c1C[C@H](N)C(=O)N1CCc2ccc(Cc3ccc4ccccc4c3)cc2C1` [Compound 8p, (S)-2-amino-3-(4-hydroxy-2,6-dimethylphenyl)-1-(7-(naphthalen-2-ylmethyl)-3,4-dihydroisoquinolin-2(1H)-yl)propan-1-one] returned an inhibitory constant (Ki) at human KOR [1] of 142 nM. Moreover, the affinity at human DOR [2], expressed as Ki, was 3.5 nM. At human MOR [3], this molecule yielded an EC50 of 176 nM and an Emax of 51%. The “EC50 DOR” value at human DOR [4] (setting [7]) is listed as “dns”. Besides, on human DOR [4], the “% Stimulation DOR” value is “dns”. For the same molecule, on human KOR [5], the “EC50 KOR” value was “dns” and the “% Stimulation KOR” value is recorded as “dns”. The molecule also registered a Ki on human MOR [6] of 5.8 nM.
`Cc1cc(O)cc(C)c1C[C@H](N)C(=O)N1CCc2ccc(Cc3cccc4cccnc34)cc2C1` [Compound 8q, (S)-2-amino-3-(4-hydroxy-2,6-dimethylphenyl)-1-(7-(quinolin-8-ylmethyl)-3,4-dihydroisoquinolin-2(1H)-yl)propan-1-one]: the results for the Ki on human KOR [1], at human DOR [2] and on human MOR [6] were 19 nM, 0.46 nM and 1.4 nM, respectively. The EC50 at human MOR [3] was found to be 24 nM; on human DOR [4] (setting [7]), 1.2 nM; on human KOR [5], 258 nM. Also, the Emax at human MOR [3] was determined as 63%; at human KOR [5], 25%. The “% Stimulation DOR” value at human DOR [4] was 23 (4) %.
In the case of `Cc1cc(O)cc(C)c1C[C@H](N)C(=O)N1CCc2ccc(Cc3cccc4ccncc34)cc2C1` [Compound 8r, (S)-2-amino-3-(4-hydroxy-2,6-dimethylphenyl)-1-(7-(isoquinolin-8-ylmethyl)-3,4-dihydroisoquinolin-2(1H)-yl)propan-1-one], the Ki turned out to be 2.7 nM at human KOR [1], 0.69 nM at human DOR [2] and 1.8 nM on human MOR [6]. In addition, the EC50 at human MOR [3] amounted to 24 nM; on human KOR [5] it was 65 nM. The values for the Emax at human MOR [3] and on human KOR [5] were 36% and 42%, respectively. Also, the “EC50 DOR” value on human DOR [4] (setting [7]) was “dns *”. Also, the “% Stimulation DOR” value at human DOR [4] is “dns *”.
Take `Cc1cc(O)cc(C)c1C[C@H](N)C(=O)N1CCc2ccc(Cc3cccc4cnccc34)cc2C1` [Compound 8s, (S)-2-amino-3-(4-hydroxy-2,6-dimethylphenyl)-1-(7-(isoquinolin-5-ylmethyl)-3,4-dihydroisoquinolin-2(1H)-yl)propan-1-one]: the Ki came out at 10 nM on human KOR [1], 1.2 nM at human DOR [2] and 9.7 nM at human MOR [6]. The EC50 was determined as 43 nM at human MOR [3] and 609 nM on human KOR [5]. Moreover, the Emax was found to be 28% on human MOR [3] and 24% on human KOR [5]. The “EC50 DOR” value on human DOR [4] (setting [7]) was “dns”. The “% Stimulation DOR” value at human DOR [4] is given as “dns”.

The values above are taken from PMC6930500, “Structure–Activity Relationships of 7-Substituted Dimethyltyrosine-Tetrahydroisoquinoline Opioid Peptidomimetics” (Molecules, 2019).
